Test results published in patent US9663511B2, “Sphingosine 1-phosphate receptor antagonists” (ARROYO BIOSCIENCES, LLC, priority 2012, dated 2017).

Legend:
[1] = target: S1P2 receptor (Homo sapiens (Human), UniProt O95136); assay: Antagonist assay (FLIPR TETRA, inhibition of reference agonist EC80) on S1P2; assay type: cell-based; details: tested as the citrate salt
Procedure: (§1) Antagonist percentage inhibition determinations were obtained by assaying sample compounds and referencing the control (EC80) wells for each profiled (GPCR) which evaluated binding to S1P2 and S1P5 receptors. The samples were run using a single addition assay protocol. The protocol design is as follows.
(§2) Unless specified otherwise, the sample compounds were diluted in 100% anhydrous DMSO including all dilutions. The compounds were tested as the citrate salt (1 equivalent per molecule). If the sample compound is provided in a different solvent all master stock dilutions are performed in the specified solvent. All control wells contained identical solvent final concentrations as the sample compound wells.
(§3) The sample compounds were transferred from a master stock solution into a daughter plate that was used in the assay. Each sample compound was diluted into an assay buffer (1×HBSS with 20 mM HEPES, 2.5 mM Probenecid, and 0.4% Free Fatty Acid BSA) at an appropriate concentration to obtain final specified concentrations.
(§4) Using the EC80 values that were determined real-time, stimulated all pre-incubated sample compounds and reference antagonists (if applicable) were compared with the EC80 values of reference agonist. These were read for 180 seconds using the FLIPR^TETRA (This assay added reference agonist to respective wells-then fluorescences measurements were collected to calculate IC50 values). All plates were subjected to appropriate baseline corrections. Once baseline corrections were processed, maximum fluorescence values were exported and data manipulated to calculate percentage activation, percentage inhibition and Z′.

[2] = target: S1P5 receptor (Homo sapiens (Human), UniProt Q9H228); assay: Antagonist assay (FLIPR TETRA, inhibition of reference agonist EC80) on S1P5; assay type: cell-based; details: tested as the citrate salt
Procedure: as §1, §2, §3, §4

[3] = In vitro plasma protein binding; assay type: in vitro ADME, mouse; details: for mean fraction bound (%): mouse plasma, test concentration 5 nM
[4] = Microsomal intrinsic clearance; details: for microsomal CLint at 1 μM / half-life at 1 μM: mouse, liver microsomes, mouse microsomes, test conc. 1 μM

Sequence of S1P2 receptor (O95136 whole entry): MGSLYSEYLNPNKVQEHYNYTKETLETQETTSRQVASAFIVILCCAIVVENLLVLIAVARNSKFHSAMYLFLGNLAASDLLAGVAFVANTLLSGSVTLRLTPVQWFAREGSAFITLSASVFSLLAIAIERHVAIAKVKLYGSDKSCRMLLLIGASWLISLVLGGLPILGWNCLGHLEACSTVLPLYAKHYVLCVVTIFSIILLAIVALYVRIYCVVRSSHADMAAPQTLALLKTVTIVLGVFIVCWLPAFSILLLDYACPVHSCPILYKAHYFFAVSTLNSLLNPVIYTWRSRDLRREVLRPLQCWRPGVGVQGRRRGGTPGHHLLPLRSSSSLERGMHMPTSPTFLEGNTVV
Sequence of S1P5 receptor (Q9H228 whole entry): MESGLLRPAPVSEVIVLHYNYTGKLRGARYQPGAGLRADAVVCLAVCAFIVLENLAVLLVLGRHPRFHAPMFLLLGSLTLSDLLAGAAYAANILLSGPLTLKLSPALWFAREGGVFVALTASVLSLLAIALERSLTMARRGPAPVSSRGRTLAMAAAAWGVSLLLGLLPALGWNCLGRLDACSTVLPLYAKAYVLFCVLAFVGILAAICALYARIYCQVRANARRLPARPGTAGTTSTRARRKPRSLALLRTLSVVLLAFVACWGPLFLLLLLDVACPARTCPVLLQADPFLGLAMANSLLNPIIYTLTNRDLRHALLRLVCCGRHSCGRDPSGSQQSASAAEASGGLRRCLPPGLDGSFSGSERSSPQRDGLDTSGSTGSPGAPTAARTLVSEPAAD

IC50 [1]	IC50 [2]	Compound	other results
3000 nM	5700 nM	C=CCn1nc(C)c2c(C(C)C)cc(N(CC(=O)O)NC(=O)Nc3cc(Cl)nc(Cl)c3)nc21 [Compound 3]	
64 nM	290 nM	Cc1nn(C)c2nc(N(CCO)NC(=O)Nc3cc(Cl)c(Cl)s3)cc(C(C)C)c12 [Compound 42]	
		CC(C)NCC(O)COc1cccc2ccccc12 (centres unmarked) [Propanolol, reference compound]	mean fraction bound (%) [3]: 87.4%
75 nM	165 nM	C=CCn1nc(C)c2c(C(C)C)cc(NNC(=O)Nc3cc(Cl)nc(Cl)c3)nc21 [Compound 27]	
10 nM	33 nM	CCCOc1cc(NC(=O)NN(CCO)c2cc(C(C)C)c3c(C)nn(C)c3n2)cc(Cl)n1 [Compound 36]	
11 nM	3.2 nM	Cc1nn(C)c2nc(N(CC(=O)O)NC(=O)Nc3cc(Cl)nc(Cl)c3)cc(C(C)C)c12 [Compound 2]	plasma protein binding (in words) ([3]; compared with JTE013 and compound 1): lower plasma protein binding; mean fraction bound (%) [3]: 77.0%; stability in liver microsomes (in words) ([4]; compared with JTE013): much more stable in liver microsomes; microsomal CLint at 1 μM ([4]; NADPH-dependent Clint (microsomal intrinsic clearance)): 20 µL/min/mg; half-life at 1 μM ([4]; NADPH-dependent T1/2 (half-life)): 1.88 h; microsomal CLint at 1 μM ([4]; NADPH-free Clint (microsomal intrinsic clearance)): 9 µL/min/mg; half-life at 1 μM ([4]; NADPH-free T1/2 (half-life)): > 3 h
360 nM	> 10000 nM	Cc1sc(NC(=O)NN(CCO)c2cc(C(C)C)c3c(C)nn(C)c3n2)cc1Cl [Compound 43]	
7 nM	20.9 nM	Cc1nn(C)c2nc(N(CCO)NC(=O)Nc3cc(Cl)nc(Cl)c3)cc(C(C)C)c12 [Compound 9, N-(2,6-Dichloropyridin-4-yl)-2-(2-hydroxyethyl)-2-(4-isopropyl-1,3-dimethyl-1H-pyrazolo[3,4-b]pyridin-6-yl)hydrazine-1-carboxamide]	
52 nM	8.7 nM	C=CCn1nc(C)c2c(C(C)C)cc(ONC(=O)Nc3cc(Cl)nc(Cl)c3)nc21 [Compound 6]	
> 10000 nM	> 10000 nM	Cc1nn(C)c2nc(N(CCO)NC(=O)Nc3ccc(Cl)nc3Cl)cc(C(C)C)c12 [Compound 41]	
160 nM	> 10000 nM	COCCOc1cc(NC(=O)NN(CCO)c2cc(C(C)C)c3c(C)nn(C)c3n2)cc(Cl)n1 [Compound 37]	
4 nM	4.6 nM	CCNc1cc(NC(=O)NN(CCO)c2cc(C(C)C)c3c(C)nn(C)c3n2)cc(Cl)n1 [Compound 38]	
19 nM	40 nM	CCN(C)c1cc(NC(=O)NN(CCO)c2cc(C(C)C)c3c(C)nn(C)c3n2)cc(Cl)n1 [Compound 39]	
> 10000 nM	> 10000 nM	C=CCn1nc(C)c2c(C(F)(F)F)cc(NNC(=O)Nc3cc(Cl)nc(Cl)c3)nc21 [Compound 5]	
29 nM	13 nM	CCOc1cc(NC(=O)NN(CCO)c2cc(C(C)C)c3c(C)nn(C)c3n2)cc(Cl)n1 [Compound 35]	
> 10000 nM	> 10000 nM	Cc1nn(C)c2nc(N(CCO)NC(=O)Nc3cc(Cl)no3)cc(C(C)C)c12 [Compound 45]	
> 120 nM	74 nM	Cc1nn(C)c2nc(N(CCO)NC(=O)Nc3cc(Cl)cc(C(F)(F)F)c3)cc(C(C)C)c12 [Compound 44]	
300 nM	> 10000 nM	Cc1nn(C)c2nc(N(CCO)NC(=O)Nc3cnc(Cl)c(Cl)c3)cc(C(C)C)c12 [Compound 40]	
5 nM	< 10 nM	CC(C)c1cc(NNC(=O)Nc2cc(Cl)nc(Cl)c2)nc2c(CCCO)nn(C)c12 [Compound 33]	
